Laboratory results reported in patent US12077503B2, “Substituted cyclic amides and their use as herbicides” (FMC CORPORATION, priority 2015, dated 2024).

Assays:
Assay type in all cases: in vivo
Kochia (Kochia scoparia) [1] = test: Test A preemergence
How it was run: (§1)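 Seeded soil received test chemicals as a preemergence directed spray, and seedlings at one to two leaves, 2–10 cm tall, received them postemergence, in a non-phytotoxic, surfactant-containing solvent mixture. Pots were held in a greenhouse for approximately 10 d, then rated for injury from 0, no effect, to 100, complete control.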

[2] = test system: barnyardgrass (Echinochloa crus-galli); test: Test A preemergence
How it was run: as §1

[3] = test system: giant foxtail (Setaria faberii); test: Test A preemergence
How it was run: as §1

[4] = test system: pigweed (Amaranthus retroflexus); test: Test A preemergence
[5] = test system: ragweed (common ragweed, Ambrosia elatior); test: Test A preemergence
How it was run: as §1

[6] = test system: ryegrass, Italian (Italian ryegrass, Lolium multiflorum); test: Test A preemergence
How it was run: as §1

[7] = test system: Galium (catchweed bedstraw, Galium aparine); test: Test A postemergence; conditions: postemergence, 0 to 100 scale (0 no effect, 100 complete control)
How it was run: as §1

Kochia (Kochia scoparia) [8] = test: Test A postemergence; conditions: postemergence, 0 to 100 scale (0 no effect, 100 complete control)
How it was run: as §1

[9] = test system: barnyardgrass (Echinochloa crus-galli); test: Test A postemergence; conditions: postemergence, 0 to 100 scale (0 no effect, 100 complete control)
How it was run: as §1

[10] = test system: blackgrass (Alopecurus myosuroides); test: Test A postemergence; conditions: postemergence, 0 to 100 scale (0 no effect, 100 complete control)
How it was run: as §1

corn (Zea mays) = test: Test A postemergence; conditions: postemergence, 0 to 100 scale (0 no effect, 100 complete control)
How it was run: as §1

[11] = test system: giant foxtail (Setaria faberii); test: Test A postemergence; conditions: postemergence, 0 to 100 scale (0 no effect, 100 complete control)
How it was run: as §1

[12] = test system: pigweed (Amaranthus retroflexus); test: Test A postemergence; conditions: postemergence, 0 to 100 scale (0 no effect, 100 complete control)
How it was run: as §1

[13] = test system: ragweed (common ragweed, Ambrosia elatior); test: Test A postemergence; conditions: postemergence, 0 to 100 scale (0 no effect, 100 complete control)
How it was run: as §1

[14] = test system: ryegrass, Italian (Italian ryegrass, Lolium multiflorum); test: Test A postemergence; conditions: postemergence, 0 to 100 scale (0 no effect, 100 complete control)
How it was run: as §1

[15] = test system: wheat (Triticum aestivum); test: Test A postemergence; conditions: postemergence, 0 to 100 scale (0 no effect, 100 complete control)
How it was run: as §1

[16] = test system: barnyardgrass (Echinochloa crus-galli); test: Test B flooded paddy test; conditions: Flood, 250 g ai/ha; 0 to 100 scale where 0 is no effect and 100 is complete control; 13 to 15 d
How it was run: (§2)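 Flooding to 3 cm over soil accompanied treatment, which consisted of adding compound to the standing water around 2-leaf plants; depth was then maintained. Visual assessment versus controls followed at 13 to 15 d (scale 0–100, 0 meaning no effect).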

[17] = test system: ducksalad (Heteranthera limosa); test: Test B flooded paddy test; conditions: Flood, 250 g ai/ha; 0 to 100 scale where 0 is no effect and 100 is complete control; 13 to 15 d
How it was run: as §2

rice (Oryra sativa) = test: Test B flooded paddy test; conditions: Flood, 250 g ai/ha; 0 to 100 scale where 0 is no effect and 100 is complete control; 13 to 15 d
How it was run: as §2

[18] = test system: sedge, umbrella (small-flower umbrella sedge, Cyperus difformis); test: Test B flooded paddy test; conditions: Flood, 250 g ai/ha; 0 to 100 scale where 0 is no effect and 100 is complete control; 13 to 15 d
How it was run: as §2

[19] = 125 g ai/ha, Preemergence, visual injury after approximately 10 d, 0 to 100 scale where 0 is no effect and 100 is complete control
[20] = 500 g ai/ha, preemergence, 0 to 100 scale, 0 = no effect, 100 = complete control
[21] = 125 g ai/ha, visual rating after approx. 10 d
[22] = 500 g ai/ha, visual injury, approx. 10 d

CN1CC(c2ccc(F)c(F)c2)C(C(=O)Nc2ccccc2S(C)(=O)=O)C1=O (stereo not drawn) [Compound 640]
100: Plant response rating, Ducksalad [17]
90: Plant response rating, Barnyardgrass [2, 19] | Plant response rating, Barnyardgrass [2, 20] | Plant response rating, Foxtail, Giant [3, 19] | Plant response rating, Foxtail, Giant [3, 20] | Plant response rating, Pigweed [4, 20] | Plant response rating, Barnyardgrass [9, 21] | Plant response rating, Barnyardgrass [9, 22] | Plant response rating, Foxtail, Giant [11, 22]
20: Plant response rating, Ryegrass, Italian [6, 19] | Plant response rating, Pigweed [12, 22]
60: Plant response rating, Kochia (Kochia (Kochia scoparia) [1]; [20]) | Plant response rating, Ragweed [5, 20]
0: Plant response rating, Kochia (Kochia (Kochia scoparia) [8]; [21]) | Plant response rating, Blackgrass [10, 21] | Plant response rating, Corn (corn (Zea mays); [21]) | Plant response rating, Corn (corn (Zea mays); [22]) | Plant response rating, Pigweed [12, 21] | Plant response rating, Ragweed [13, 21] | Plant response rating, Ragweed [13, 22] | Plant response rating, Ryegrass, Italian [14, 21] | Plant response rating, Ryegrass, Italian [14, 22] | Plant response rating, Wheat [15, 21] | Plant response rating, Sedge, Umbrella [18]
25: Plant response rating, Rice (rice (Oryra sativa))
80: Plant response rating, Pigweed [4, 19] | Plant response rating, Foxtail, Giant [11, 21]
50: Plant response rating, Kochia (Kochia (Kochia scoparia) [1]; [19]) | Plant response rating, Ryegrass, Italian [6, 20] | Plant response rating, Galium [7, 22] | Plant response rating, Blackgrass [10, 22] | Plant response rating, Wheat [15, 22]
30: Plant response rating, Barnyardgrass [16]
40: Plant response rating, Ragweed [5, 19] | Plant response rating, Galium [7, 21] | Plant response rating, Kochia (Kochia (Kochia scoparia) [8]; [22])
